≈ marks a conversion by molar mass, not a printed value.
Assays:
P388 = assay: In vivo antitumor activity against mouse P388 cells in mouse at 100 mg/kg relative to control; assay type: functional
KB = assay: Cytotoxicity against human KB cells; assay type: functional; conditions: read-out: ED50 (the source's name)

**Q.** With `COc1cc2cc(c1Cl)NC(=O)C[C@H](OC(=O)[C@H](C)N(C)C(C)=O)[C@]1(C)O[C@H]1[C@H](C)[C@@H]1C[C@@](O)(NC(=O)O1)[C@H](OC)/C=C/C=C(\C)C2` [NORMAYTANSINE] as the compound, how does the T/C (P388) read?
**A.** 181%

**Q.** What about the EC50 (KB) of the same compound?
**A.** 1 ng/mL (≈ 1.47 nM)

From ChEMBL document CHEMBL1151353, “Normaytansine, a new antileukemic ansa macrolide from Maytenus buchananii” (1980)
